Three compounds from ChEMBL document CHEMBL1132956 (J Med Chem, 2000) can be followed below.

The species entered for experiment [1] is Homo sapiens. As to the kind of experiment: tissue or blood.
Description: In vitro assay for PGE-2 production as a function of COX-2 inhibition in whole human blood cultured with lipopolysaccharide (LPS)
For experiment [2], the species on record is Homo sapiens. Description: tissue or blood. The source holds these as a separate data set.
Description: Analysis of TXB2 as a function of COX-1 activity in heparinized human whole blood.
Experiment [3] has as its target Prostaglandin G/H synthase 1 (Homo sapiens, UniProt P23219).
Description: In Vitro activity of compound against human recombinant Prostaglandin G/H synthase 1

SMILES strings stand for the structures.

Chain of Prostaglandin G/H synthase 1 (P23219 whole entry): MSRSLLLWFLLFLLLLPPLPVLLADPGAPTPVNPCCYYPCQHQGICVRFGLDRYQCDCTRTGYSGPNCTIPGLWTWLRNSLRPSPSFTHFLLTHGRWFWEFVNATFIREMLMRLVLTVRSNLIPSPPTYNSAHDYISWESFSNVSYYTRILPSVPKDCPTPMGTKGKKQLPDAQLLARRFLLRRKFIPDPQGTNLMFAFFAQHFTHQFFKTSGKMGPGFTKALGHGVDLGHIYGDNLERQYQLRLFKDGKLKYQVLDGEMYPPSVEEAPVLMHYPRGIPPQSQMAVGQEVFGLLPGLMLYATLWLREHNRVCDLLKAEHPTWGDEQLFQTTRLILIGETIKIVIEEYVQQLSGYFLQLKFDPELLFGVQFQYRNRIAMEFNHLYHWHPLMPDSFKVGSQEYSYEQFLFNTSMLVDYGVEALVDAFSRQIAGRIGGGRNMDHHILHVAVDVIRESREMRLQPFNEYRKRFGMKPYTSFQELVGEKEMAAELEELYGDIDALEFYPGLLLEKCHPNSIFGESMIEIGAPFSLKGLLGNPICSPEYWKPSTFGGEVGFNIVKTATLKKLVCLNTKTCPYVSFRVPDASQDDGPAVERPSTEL

By IC50 is commonly meant the concentration needed to halve the response being measured. Regarding `Cc1ccc(-c2cc(C(F)(F)F)nn2-c2ccc(S(N)(=O)=O)cc2)cc1` [CELECOXIB], the IC50 in experiment [1] came to 0.164 µM; in experiment [2], 6.67 µM.
As for `NS(=O)(=O)c1ccc(-c2c(-c3ccccc3)noc2CO)cc1` [HYDROXYLATED DERIVATIVE], the IC50 is 1120 µM in experiment [3], 0.329 µM in experiment [1] and above 50 µM in experiment [2].
On to `Cc1onc(-c2ccccc2)c1-c1ccc(S(N)(=O)=O)cc1` [VALDECOXIB], for which the IC50 came out at 0.89 µM in experiment [1] and 25.4 µM in experiment [2].
